Reference: patent publication US11000033B2, “Ketone or oxime compound, and herbicide” (NISSAN CHEMICAL CORPORATION, priority 2014, dated 2021)

What was measured:
Format in all cases: in vivo
Scirpus juncoides [1] = test: Test Example 1: herbicidal activity, application before weed generation in submerged conditions (symbol B); details: application herbicide amount 320 g/ha
Summary of the method: (§1)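 Flooded alluvial soil (4 cm water) was mixed-sown with the three weed species, and 2.5-leaf rice seedlings were transplanted. On sowing day, a water-diluted emulsion at a predetermined rate was applied to the water surface. After 3 weeks in a 25–30 °C greenhouse, effect was scored 0–5.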

Leptochloa chinensis = test: Test Example 3: herbicidal effect by foliage application, Wagner pot (symbol D); details: application herbicide amount 320 g/ha
Summary of the method: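 Alluvial soil was flooded to a depth of 0.1–0.5 cm, seeded with the weeds and rice, and kept in a greenhouse at 25–30 °C. After 14 days of growth, the foliage received a small-sprayer application of emulsion diluted to the intended rate; injury was rated at 3 weeks.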

beet = test: Test Example 4: effect on crop by soil treatment (symbol f)
Summary of the method: (§2)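 Seeds were sown in spots on sterilized diluvial soil in a plastic box and covered with about 1.5 cm of soil. Plants were then grown in a greenhouse at 25° C. to 30° C.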

transplanted rice plant = test: Test Example 1: effect on crop, application before weed generation in submerged conditions (symbol a); details: application herbicide amount 320 g/ha
Summary of the method: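 Alluvial soil pots flooded to 4 cm water, sown with Echinochloa oryzacola, Scirpus juncoides and Monochoria vaginalis, then transplanted with 2.5 leaf stage rice seedlings; pre-emergence application. Greenhouse 25° C. to 30° C.; scored 0–5 by herbicidal ratio 3 weeks after application.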

rapeseed = test: Test Example 5: effect on crop by foliage application, plastic box (symbol g); details: 320 g/ha, 3 weeks after application
Summary of the method: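 Crop seed is sown alongside grass and broadleaf weed species in spots in sterilized diluvial soil, then covered to a depth of about 1.5 cm. Plants grow in a greenhouse kept at 25° C. to 30° C.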

soybean = test: Test Example 4: effect on crop by soil treatment (symbol d)
Summary of the method: as §2

Scirpus juncoides [2] = test: Test Example 2: herbicidal activity, application during weed generation in submerged conditions (symbol B); details: Table 23; application herbicide amount 320 g/ha; grade 0-5 by criteria of Test Example 1
Summary of the method: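 Weeds emerging under flooded conditions were treated with compound formulated as an emulsion and diluted with water to the intended herbicide amount, poured onto the surface of 4 cm standing water. Seeds had been co-sown in alluvial soil; plants grew at 25° C. to 30° C. and were assessed after 3 weeks.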

Monochoria vaginalis = test: Test Example 1: herbicidal activity, application before weed generation in submerged conditions (symbol C); details: application herbicide amount 320 g/ha
Summary of the method: as §1

Chenopodium album = test: Test Example 5: herbicidal effect by foliage application, plastic box (symbol O); details: 320 g/ha, 3 weeks after application
Summary of the method: (§3)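 Visual herbicidal score, taken three weeks post-application, of seedlings sprayed on the foliage with water-diluted emulsion at a predetermined amount; plants were 14 days old, greenhouse-raised at 25° C. to 30° C.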

[3] = system: Echinochloa crus-galli var. crus-galli; test: Test Example 5: herbicidal effect by foliage application, plastic box (symbol H); details: 320 g/ha, 3 weeks after application
Summary of the method: as §3

[4] = application herbicide amount 320 g/ha

| Compound | Herbicidal effect grade, B: Scirpus juncoides (Scirpus juncoides [1]) | herbicidal effect on D (Leptochloa chinensis), grade 0-5 (Leptochloa chinensis) | f (beet) effect on crop grade (beet; [4]) | Effect grade on crop, a: transplanted rice plant (transplanted rice plant) | g: rapeseed, effect on crop grade (rapeseed) | d (soybean) effect on crop grade (soybean; [4]) | Herbicidal effect grade, B: Scirpus juncoides (Scirpus juncoides [2]) | Herbicidal effect grade, C: Monochoria vaginalis (Monochoria vaginalis) | O: Chenopodium album, herbicidal effect grade (Chenopodium album) | H: Echinochloa crus-galli var. crus-galli, herbicidal effect grade [3] | f: beet, effect grade on crop (beet; 320 g/ha) | g: rapeseed, effect on crop (criteria 0-5) (rapeseed) | d: soybean, effect grade on crop (soybean; 320 g/ha) | O: Chenopodium album, herbicidal effect (criteria 0-5) (Chenopodium album) | H: Echinochloa crus-galli var. crus-galli, herbicidal effect (criteria 0-5) [3] | D (Leptochloa chinensis) herbicidal effect grade (Leptochloa chinensis; Table 24) | Effect on crop grade, f: beet (beet; [4]) | Effect on crop grade, d: soybean (soybean; [4]) |
| --- | --- | --- | --- | --- | --- | --- | --- | --- | --- | --- | --- | --- | --- | --- | --- | --- | --- | --- |
| CC(CC1CC(O)=C(c2c(C)cc(C)cc2C)C1=O)=NOC(C)(C)C (centres unmarked) [1-053] | 3 (Herbicidal ratio of 40% or higher and lower than 70%) | 5 (Herbicidal ratio of 90% or more (almost completely withered)) | 0 (Herbicidal ratio of 5% or lower (almost no effect)) | 5 (Herbicidal ratio of 90% or more (almost completely withered)) | 4 (Herbicidal ratio of 70% or higher and lower than 90%) | 0 (Herbicidal ratio of 5% or lower (almost no effect)) | 0 (Herbicidal ratio of 5% or lower (almost no effect)) | 0 (Herbicidal ratio of 5% or lower (almost no effect)) | 1 (Herbicidal ratio of 5% or higher and lower than 20%) | 4 (Herbicidal ratio of 70% or higher and lower than 90%) | – | – | – | – | – | – | – | – |
| CON=C(C)CC1CC(OCC#C[Si](C)(C)C)=C(c2c(C)cc(C)cc2C)C1=O (centres unmarked) [1-031] | 4 (Herbicidal ratio of 70% or higher and lower than 90%) | 4 (Herbicidal ratio of 70% or higher and lower than 90%) | 0 (Herbicidal ratio of 5% or lower (almost no effect)) | 0 (Herbicidal ratio of 5% or lower (almost no effect)) | 3 (Herbicidal ratio of 40% or higher and lower than 70%) | 0 (Herbicidal ratio of 5% or lower (almost no effect)) | 2 (Herbicidal ratio of 20% or higher and lower than 40%) | 2 (Herbicidal ratio of 20% or higher and lower than 40%) | 0 (Herbicidal ratio of 5% or lower (almost no effect)) | 1 (Herbicidal ratio of 5% or higher and lower than 20%) | – | – | – | – | – | – | – | – |
| CON=C(C)CC1CC(OC(=O)COc2ccc(I)cc2)=C(c2c(C)cc(C)cc2C)C1=O (centres unmarked) [1-082] | 5 (Herbicidal ratio of 90% or more (almost completely withered)) | 5 (Herbicidal ratio of 90% or more (almost completely withered)) | – | 5 (Herbicidal ratio of 90% or more (almost completely withered)) | – | – | 5 (Herbicidal ratio of 90% or more (almost completely withered)) | 2 (Herbicidal ratio of 20% or higher and lower than 40%) | – | – | 0 (Herbicidal ratio of 5% or lower (almost no effect)) | 4 (Herbicidal ratio of 70% or higher and lower than 90%) | 2 (Herbicidal ratio of 20% or higher and lower than 40%) | 1 (Herbicidal ratio of 5% or higher and lower than 20%) | 5 (Herbicidal ratio of 90% or more (almost completely withered)) | – | – | – |
| CON=C(C)C(C)C1CC(O)=C(c2c(C)cc(C)cc2C)C1=O (centres unmarked) [1-032] | 5 (Herbicidal ratio of 90% or more (almost completely withered)) | 5 (Herbicidal ratio of 90% or more (almost completely withered)) | 4 (Herbicidal ratio of 70% or higher and lower than 90%) | 5 (Herbicidal ratio of 90% or more (almost completely withered)) | 4 (Herbicidal ratio of 70% or higher and lower than 90%) | 0 (Herbicidal ratio of 5% or lower (almost no effect)) | 4 (Herbicidal ratio of 70% or higher and lower than 90%) | 3 (Herbicidal ratio of 40% or higher and lower than 70%) | 3 (Herbicidal ratio of 40% or higher and lower than 70%) | 5 (Herbicidal ratio of 90% or more (almost completely withered)) | – | – | – | – | – | – | – | – |
| CC(CC1CC(O)=C(c2c(C)cc(C)cc2C)C1=O)=NOCC[Si](C)(C)C (centres unmarked) [1-055] | 3 (Herbicidal ratio of 40% or higher and lower than 70%) | 5 (Herbicidal ratio of 90% or more (almost completely withered)) | 0 (Herbicidal ratio of 5% or lower (almost no effect)) | 5 (Herbicidal ratio of 90% or more (almost completely withered)) | 3 (Herbicidal ratio of 40% or higher and lower than 70%) | 0 (Herbicidal ratio of 5% or lower (almost no effect)) | 0 (Herbicidal ratio of 5% or lower (almost no effect)) | 0 (Herbicidal ratio of 5% or lower (almost no effect)) | 1 (Herbicidal ratio of 5% or higher and lower than 20%) | 4 (Herbicidal ratio of 70% or higher and lower than 90%) | – | – | – | – | – | – | – | – |
| CON=C(CC1CC(O)=C(c2c(C)cc(Br)cc2C)C1=O)C1CC1 (centres unmarked) [9-002] | 2 (Herbicidal ratio of 20% or higher and lower than 40%) | – | – | 5 (Herbicidal ratio of 90% or more (almost completely withered)) | 4 (Herbicidal ratio of 70% or higher and lower than 90%) | – | 0 (Herbicidal ratio of 5% or lower (almost no effect)) | 0 (Herbicidal ratio of 5% or lower (almost no effect)) | 0 (Herbicidal ratio of 5% or lower (almost no effect)) | 5 (Herbicidal ratio of 90% or more (almost completely withered)) | – | – | – | – | – | 5 (Herbicidal ratio of 90% or more (almost completely withered)) | 0 (Herbicidal ratio of 5% or lower (almost no effect)) | 0 (Herbicidal ratio of 5% or lower (almost no effect)) |
| CON=C(CC1CC(O)=C(c2c(C)cc(C)cc2C)C1=O)C1CC1 (centres unmarked) [1-046] | 5 (Herbicidal ratio of 90% or more (almost completely withered)) | 5 (Herbicidal ratio of 90% or more (almost completely withered)) | 0 (Herbicidal ratio of 5% or lower (almost no effect)) | 5 (Herbicidal ratio of 90% or more (almost completely withered)) | 4 (Herbicidal ratio of 70% or higher and lower than 90%) | 0 (Herbicidal ratio of 5% or lower (almost no effect)) | 5 (Herbicidal ratio of 90% or more (almost completely withered)) | 4 (Herbicidal ratio of 70% or higher and lower than 90%) | 2 (Herbicidal ratio of 20% or higher and lower than 40%) | 5 (Herbicidal ratio of 90% or more (almost completely withered)) | – | – | – | – | – | – | – | – |
| CON=C(C)CC1CC(OC(=O)C(C)(C)Oc2ccc(Cl)cc2)=C(c2c(C)cc(C)cc2C)C1=O (centres unmarked) [1-051] | 5 (Herbicidal ratio of 90% or more (almost completely withered)) | 5 (Herbicidal ratio of 90% or more (almost completely withered)) | 0 (Herbicidal ratio of 5% or lower (almost no effect)) | 5 (Herbicidal ratio of 90% or more (almost completely withered)) | 4 (Herbicidal ratio of 70% or higher and lower than 90%) | 3 (Herbicidal ratio of 40% or higher and lower than 70%) | 5 (Herbicidal ratio of 90% or more (almost completely withered)) | 0 (Herbicidal ratio of 5% or lower (almost no effect)) | 0 (Herbicidal ratio of 5% or lower (almost no effect)) | 5 (Herbicidal ratio of 90% or more (almost completely withered)) | – | – | – | – | – | – | – | – |
